Data taken from article PMC7221793, “Metabolism and Pharmacokinetics of SP-8356, a Novel (1S)-(−)-Verbenone Derivative, in Rats and Dogs and Its Implications in Humans” (Molecules, 2020).
Where two headings read alike, the source gives them in different places.

Assays:
[1] = In vivo metabolite identification, pooled rat plasma (Q-TOF LC-MS/MS); details: i.v. SP-8356 20 mg/kg
Procedure: (§1) Plasma samples from the i.v. administrations described in Section 4.2 and Section 4.3 were used in this study. Plasma samples pooled at each time point were subjected to sample preparation as described in Section 4.2. The prepared samples were analyzed by Agilent 6530 Q-TOF LC-MS/MS system equipped with dual AJS ESI ion source and Agilent 1200 series HPLC system as described below.
(§2) Chromatographic separation was achieved on an Agilent Eclipse C18 column (2.1 mm × 100 mm, 3.5 µm) by a gradient elution with a mobile phase consisting of 0.1 vol.% formic acid in water (A) and 0.1 vol.% formic acid in acetonitrile (B) at 50 °C: starting with 5 vol.% B for 2 min, ramping to 95 vol.% B over 1 min, maintaining for 3 min. The mobile phase flow rate was kept at 0.45 mL/min throughout the run. The sample injection volume was 5 µL. Ion source parameters were set as follows: capillary voltage, 3500 V; drying gas, 12 L/min and 300 °C; nebulizer gas, 30 psi; sheath gas, 12 L/min and 300 °C. Mass spectra were acquired in negative ion auto MS/MS mode (F, 135 V; CE, 25 eV) with full scan range of m/z (100–1000) and mass scan rate of 8 spectra/s. Metabolites were identified using Agilent MassHunter Metabolite ID software (version B.04.00) (Santa Clara, CA, USA). Chromatograms and mass spectra of the parent and identified metabolites were extracted using Agilent MassHunter Qualitative Analysis software (version B.05.00) (Santa Clara, CA, USA).

[2] = Metabolic stability in dog liver S9 fraction; assay type: in vitro ADME
Procedure: (§3) The metabolic stability of SP-8356 was investigated using rat, dog and human liver S9 fractions fortified with cofactors for major drug metabolism. The final reaction mixture contained 1 mg/mL rat, dog or human liver S9 fraction, 1 mM cofactors (NADPH, UDPGA, PAPS, SAM and GSH), 2 mM MgCl2, 25 µg/mL alamethicin and 1 µM SP-8356 in final volume of 200 µL. The metabolic reactions were initiated by adding 10 mM cofactor solution to reaction mixtures preincubated for 5 min at 37 °C. The reactions were terminated at (0, 5, 15, 30 and 60) min by the addition of 200 µL ice-cold acetonitrile containing HSDH (1 µg/mL). The subsequent sample preparation and analytical methods were the same as those described in Section 4.5.
(§4) The degradation t1/2 of SP-8356 was calculated using the following Equation:(1) t1/2=0.693/k, where, k was the first-order rate constant calculated by one phase decay nonlinear regression using GraphPad Prism™ 7 (GraphPad Software, La Jolla, CA, USA). CLint was calculated using the following Equation:(2) CLint=k/fu,S9· mL incubation/mg liver S9· mg S9/g liver·g liver/kg body wt.
(§5) The scaling factors were (136, 120.7 and 120.7) mg S9 protein/g liver and (40, 32 and 26) g liver/kg body weight for rats, dogs and humans, respectively. For simplicity, the fraction unbound in S9 incubation (fu, S9) was assumed to be one. CLH was predicted using the hepatic well-stirred model, as follows:(3) CLH=QH·fu·CLint/QH+fu·CLint, where, QH was the hepatic blood flow of (55, 30 and 20) mL/min/kg for rats, dogs and humans, respectively. The fraction unbound (fu) was assumed to be one. EH was calculated using the following Equation:(4) EH=CLH/QH.

[3] = Metabolic stability in rat liver S9 fraction; assay type: in vitro ADME
Procedure: as §3, §4, §5

[4] = In vivo metabolite identification, pooled dog plasma (Q-TOF LC-MS/MS); details: i.v. SP-8356 50 mg/kg
Procedure: as §1, §2

[5] = Bioactivation studies in rat liver S9 fraction; assay type: in vitro ADME; details: rat liver S9 1 mg/mL; for remaining at 1 h, 5 µM: Sprague-Dawley, rat, liver S9 fraction, read-out: SP-8356 (% Remaining at 60 min)
Procedure: SP-8356 was incubated with 1 mg/mL rat liver S9 fraction in 0.1 M potassium phosphate buffer (pH 7.4) in the absence and presence of GSH, AA, NADPH, UDPGA, PAPS and SAM. The final reaction mixture contained 5 µM SP-8356, 8 mM MgCl2, 25 µg/mL alamethicin and 1 mM cofactor in final volume of 160 µL. The reaction was initiated by adding a 10 mM cofactor solution prepared in 0.1 M potassium phosphate buffer (pH 7.4), following a 5 min preincubation of the incubation mixture at 37 °C. The final study groups were as follows: no cofactor (control), AA, NADPH, GSH, GSH + AA, GSH + NADPH and GSH + UDPGA + PAPS + SAM. The reaction was quenched at (0 and 60) min by adding 160 µL of ice-cold acetonitrile containing HSDH (1 µg/mL). Following a brief vortexing and sonication, the mixtures were centrifuged at 3,000 rpm at 4 °C for 20 min. The supernatant mixed with the same volume of deionized water on an Agilent 96-well plate was analyzed by Agilent 6530 Q-TOF LC-MS/MS system equipped with dual AJS ESI ion source and Agilent 1200 series HPLC system, as follows.
Chromatographic separation was performed on a Phenomenex Kinetex C18 column (50 mm × 2.1 mm, 2.6 µm) (USA) with 0.1 vol.% formic acid in deionized water (A) and 0.1 vol.% formic acid in acetonitrile (B) running at 0.45 mL/min in the following gradient elution: 2 vol.% B for the initial 2 min, linear gradient to 95 vol.% B for 1 min and maintaining 95 vol.% B for 5 min. The injection volume was 5 μL and the column temperature was set at 50 °C. The ion source and mass analyzer parameters of the mass spectrometer were the same as in Section 4.4. LC-MS chromatograms and mass spectra were extracted using Agilent MassHunter Qualitative Analysis software (version B.05.00) (Santa Clara, CA, USA).

[6] = Pharmacokinetic studies in rats (single i.v. and p.o. dose); assay type: in vivo; details: plasma
[7] = % versus total AUClast of parent and all detected metabolites
[8] = AR = peak area ratio versus internal standard

In the case of `COc1cc(/C=C/C2=CC(=O)[C@H]3C[C@@H]2C3(C)C)cc(O)c1O` [SP-8356, (1S,5R)-4-((E)-3,4-dihydroxy-5-methoxystryryl)-6,6-dimethylbicylco[3.1.1]hept-3-en-2-one], the “AUClast (%)” value [1, 7] is reported as 26.48%, the “AUClast (AR∙h) × 10^2” value [1, 8] is reported as 36.22 (AR∙h) × 10^2 and the half-life at 1 µM ([2]; Beagle, dog, liver S9 fraction, dog liver S9, −Cofactors, 1 μM) is reported as < 30 min. For the same compound, the CLint scaled at 1 µM ([2]; Beagle, liver S9 fraction, dog liver S9, +Cofactors) was 2430 mL/min/kg, the t1/2 ([2]; dog liver S9, −Cofactors, 1 μM) was 20.7 min and the CLH ([2]; dog, +Cofactors, predicted by well-stirred model) was 29.6 mL/min/kg. It also gave a CLint scaled at 1 µM ([3]; Sprague-Dawley, liver S9 fraction, rat liver S9, +Cofactors) of 2900 mL/min/kg, an EH ([3]; rat, +Cofactors, EH = CLH/QH) of 0.98 and a CLH ([3]; rat, +Cofactors, predicted by well-stirred model) of 54.0 mL/min/kg. The “AUClast (%)” value [4, 7] was 17.66%, the “AUClast (AR∙h) × 10^2” value [4, 8] was 698.5 (AR∙h) × 10^2 and the remaining at 1 h, 5 µM ([5]; pH 7.4, cofactors: AA (1 mM)) was 106 ± 2.6%. The remaining at 1 h, 5 µM ([5]; pH 7.4, cofactors: GSH (1 mM)) was 29.1 ± 6.9%, the remaining at 1 h, 5 µM ([5]; pH 7.4, cofactors: GSH + AA) was 92.1 ± 1.7% and the remaining at 1 h, 5 µM ([5]; pH 7.4, cofactors: GSH + NADPH) was 18 ± 1.9%. It also gave a remaining at 1 h, 5 µM ([5]; pH 7.4, cofactors: GSH + UDPGA + PAPS + SAM) of 1.3 ± 0.2%, a remaining at 1 h, 5 µM ([5]; pH 7.4, cofactors: NADPH (1 mM)) of 21.6 ± 2% and a remaining at 1 h, 5 µM ([5]; pH 7.4, cofactors: None) of ~20%. The “SP-8356 (% Remaining at 60 min)” value ([5]; cofactors: None, 5 μM) was 20.3 ± 1.9%, the Vd ([6]; male, SD (rat), Beagle (dog), iv, range over rats and dogs, read-out: mean volumes of distribution during terminal phase (Vz) and at steady state (Vss)) was 1.3 to 1.9 L/kg and the AUC(0-inf) ([6]; male, SD, iv, rat, 20 mg/kg) was 1030 ± 314 ng·h/mL. The AUC(0-t) ([6]; male, SD, iv, rat, 20 mg/kg) was 981 ± 314 ng·h/mL, the clearance ([6]; male, SD, iv, rat, 20 mg/kg) was 350 mL/min/kg and the half-life ([6]; male, SD, rat, iv, 20 mg/kg) was < 6 min. For the same compound, the Vd ([6]; male, SD, rat, iv, 20 mg/kg, read-out: Vss) was 1.6 ± 0.5 L/kg, the Vd ([6]; male, SD, rat, iv, 20 mg/kg, read-out: Vz) was 1.9 ± 0.6 L/kg and the t1/2 ([6]; rat, 20 mg/kg) was 4.2 ± 1.2 min.
